From US20060057092A1, “Cosmetic use of a composition including an ascorbic acid compound and polyamide particles” (L'OREAL, priority 2004, published 2006)

Tested on: immortalized human sebocytes resulting from the SZ95 line
Experiment: Lipogenesis in cultured immortalized human sebocytes (Nile Red fluorescence, neutral lipids)
Format: cell-based
Settings: for Inhibition of lipogenesis: Effectiveness (% with respect to the control): 0.0004% in culture medium, 2 days of treatment, neutral lipids
Procedure: Various ascorbic acid compounds were tested on a model of cultured immortalized human sebocytes resulting from the SZ95 line described in Zouboulis, C. C., Seltmann, H., Neitzel, H. and Orfanos, C. E., Establishment and Characterization of an Immortalized Human Sebaceous Gland Cell Line, J. Invest. Dermatol., 113, 1011-1020 (1999).
These compounds were composed of L-ascorbic acid 2-O-α-D-glucopyranoside (hereinafter ascorbyl glucoside), of ascorbic acid, of ascorbyl palmitate and of magnesium ascorbyl phosphate.
The test consisted in measuring the amount of lipids produced by the sebocytes of the line (at confluence) in the presence or absence of active agents diluted in the culture medium. After 2 days of treatment, the adherent cells are treated with Nile Red (1 μg/ml). The content of lipids is subsequently quantified by measuring the fluorescence of the dye (two excitation/emission pairs: 485-540 nm for the neutral lipids and 540-620 nm for the nonneutral lipids). The results are given for the neutral lipids (components of the sebum).
The experiment is carried out in octuplicate (tested and control products) in a 96-well plate.

| SMILES | Inhibition of lipogenesis: Effectiveness (% with respect to the control) | other results |
| --- | --- | --- |
| O=C1O[C@H]([C@@H](O)CO)C(O)=C1O[C@H]1O[C@H](CO)[C@@H](O)[C@H](O)[C@H]1O [Ascorbyl glucoside, L-ascorbic acid 2-O-α-D-glucopyranoside] | – | effective concentration for reducing lipogenesis relative to ascorbic acid (comparable level of inhibition) (SZ95 sebocytes): ten times lower |
| O=C1O[C@H]([C@@H](O)CO)C([O-])=C1OP(=O)([O-])[O-].O=C1O[C@H]([C@@H](O)CO)C([O-])=C1OP(=O)([O-])[O-].[Mg+2].[Mg+2].[Mg+2] [Magnesium ascorbyl phosphate, magnesium ascorbyl phosphate] | ns | – |
| O=C1O[C@H]([C@@H](O)CO)C(O)=C1O [Ascorbic acid, ascorbic acid] | ns | – |
| CCCCCCCCCCCCCCCC(=O)OC[C@H](O)[C@H]1OC(=O)C(O)=C1O [Ascorbyl palmitate, ascorbyl palmitate] | – | effect on lipogenesis (in words) (SZ95 sebocytes): stimulating (and not inhibiting) effect |
